The values below come from patent US10556866B2, “ROR gamma (RORγ) modulators” (LEAD PHARMA HOLDING B.V., priority 2015, dated 2020).

Assay [1] has as its system IL-17A production in anti-CD3/anti-CD28 stimulated peripheral blood mononuclear cells (PBMCs). The assay can be described thus: Peripheral blood mononuclear cell (PBMC) IL-17 assay. Format: cell-based. The note with it: 120 h, inhibition of IL-17A production, human PBMCs, 5 days, IL-17 ELISA, read-out: mean pIC50 (converted). The protocol: Example inhibitor 5 was tested for its ability to inhibit the IL-17A production in anti-CD3/anti-CD28 stimulated peripheral blood mononuclear cells (PBMCs) isolated from human blood. The assay procedure and results are described below.
This assay is designed to measure the levels of IL-17A secreted from anti-CD3/anti-CD28 stimulated PBMCs with the aim of measuring RORγ mediated inhibition of IL-17A production.
The assay medium consists of 90% RPMI 1640 (Lonza), 10% heat inactivated fetal bovin serum (FBS, Lonza) and 100 U/mL penicillin/streptomycin solution.
Anti-CD3 antibody (BD Pharmingen) was diluted to 10 μg/ml in PBS (Lonza). 30 μL of 10 μg/ml anti-CD3 solution was added to the inner 60 wells, excluding any negative control wells, of a 96-well cell culture treated U-bottom plate (Greiner). Plates were incubated overnight (16-24 hours) at 37° C. and 5% CO2. […]
After incubation the plates were spun down at 1500 rpm for 4 minutes and the supernatant was collected. Subsequently, the IL-17A levels in the supernatants was determined using an IL-17 ELISA kit (human IL-17 DuoSet, R&D systems) according to manufacturer's protocol.
The half maximum inhibitory concentration (IC50) values for the test compounds were calculated from the IL-17A signal using GraphPad Prism software (GraphPad Software).

The next assay has as its target T1, RORγ (Homo sapiens, UniProt P51449).
T1 construct: expressed in transfected cells; host or cells: 293FT cells (Invitrogen), expression vector pFN26A (Promega)
T1 sequence (P51449 269-508 limits assumed): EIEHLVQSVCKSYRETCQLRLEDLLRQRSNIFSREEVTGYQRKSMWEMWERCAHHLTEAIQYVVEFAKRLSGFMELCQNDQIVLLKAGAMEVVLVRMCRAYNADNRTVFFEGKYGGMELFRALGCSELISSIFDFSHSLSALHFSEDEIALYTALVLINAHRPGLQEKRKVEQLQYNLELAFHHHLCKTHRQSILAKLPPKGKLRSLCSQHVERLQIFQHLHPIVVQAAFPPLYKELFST
The assay is described as follows: RORγ GAL4 reporter gene assay (luciferase readout). The assay is classed as cell-based. The note with it: inhibition of RORγ (GAL4-RORγ-LBD) in 293FT cells, luciferase signal; read-out: mean pIC50 (converted). The method, then:
Example inhibitors 1-38 were tested for their ability to inhibit RORγ activity in a RORγ GAL4 reporter gene assay. The assay procedure and results are described below.
A GAL4 one-hybrid reporter system employing luciferase readout was established to determine inhibition of RORγ in 293FT cells. The RORγ ligand-binding domain (LBD) was fused to the yeast GAL4 DNA binding domain (DBD) and placed under the control of the human cytomegalovirus (CMV) immediate early promoter, using expression vector pFN26A (Promega) and standard recombinant DNA cloning methods. To serve as a control in the assay, a similar vector was generated in which the GAL4-DBD was fused to Herpes simplex virus protein 16 (VP16), a constitutive transcriptional activator.
To monitor the inhibitory effect of compounds on RORγ, a transcriptional reporter construct was used. The pGL4.35 vector (Promega) contains nine copies of the GAL4 Upstream Activator Sequence (UAS). This sequence drives the transcription of the luciferase reporter gene luc2P in response to binding of a fusion protein containing the GAL4 DNA binding domain, as for example expressed by the GAL4-RORγ-LBD and GAL4-VP16 expression vectors described above. To allow a GAL4 fusion protein to drive the expression of the luciferase reporter, the pGL4.35 expression vector and the appropriate GAL4 fusion protein expression vector were bulk transfected in the 293FT cells using standard transfection techniques.
The day after transfection, cells were plated into 96 well plates, test compound was added and the plates were incubated overnight. Subsequently, the firefly luciferase activity was quantified using luciferase detection reagent and luminescence readout.
293FT cells (Invitrogen) were transfected with a GAL4 fusion protein expression vector (as described above) and the transcriptional reporter construct (pGL4.35, Promega). 60 μL of TransIT-293 transfection reagent (Mirus Bio) was added drop wise to 1500 μl Opti-MEM I Reduced Serum Medium (Invitrogen) and incubated at RT (RT) for 5 to 20 minutes. 1500 μL of this reagent mixture was added to 5 μg of GAL4 fusion protein expression vector and 5 μg of the transcriptional reporter construct, and incubated at RT for 20 minutes.
To harvest 293FT cells from a T75 flask, first the culture medium was taken off the cells. Subsequently, the cells were washed with Phosphate Buffered Saline (PBS) (Lonza), after which the PBS was removed. To dissociate the cells, 1 ml of TrypLE Express (Invitrogen) was added to the flask, followed by incubation at RT until the cells visually started to detach. Cells were collected in 5 mL of assay medium (DMEM culture medium (Lonza), 10% dialyzed FBS (Invitrogen) and Pen/Strep (Lonza)) to achieve a single cell suspension. 10×10^6 cells were spun down and re-suspended in 10 mL of assay medium. Subsequently, the cell suspension was added to the transfection mix tube, and then transferred as a whole to a T75 flask (Greiner), followed by overnight (16-24 hours) incubation at 37° C. and 5% CO2.
For compound screening, the cells were harvested (as described above) and counted. 13×10^6 cells were spun down, the supernatant was aspirated and the cells were re-suspended in 17.3 mL of assay medium obtaining a cell suspension of 0.75×10^6 cells/mL. 80 μL of cell suspension (60,000 cells) was plated per well into a white, flat bottom, tissue culture treated, 96 well screening plates (Greiner).
Test compounds were diluted, starting from a 10 mM dimethylsulfoxide (DMSO) stock solution, to serial dilutions in DMSO at 500× the final test concentration. Subsequently, these solutions were diluted to 5× the final test concentration in two 10-fold-dilution steps in assay medium. The final DMSO concentration of the 5× test compound solution was 1%. 20 μL of the 5× test compound solution was added to each test well of the 96 well plate previously plated with 80 μl cell suspension, resulting in the final test concentration with 0.2% DMSO. […]

As to `O=C(NCc1ccc(S(=O)(=O)CC2CC2)cc1)c1ccc(C(O)(C(F)F)C(F)(F)F)cc1` (stereo not drawn) [Example 5, N-[[4-(cyclopropylmethylsulfonyl)phenyl]methyl]-4-[1-(difluoromethyl)-2,2,2-trifluoro-1-hydroxy-ethyl]benzamide], the IC50 in assay [1] is 100 nM; at RORγ, at most 1000 nM. For `CCCOC(c1ccc(C(=O)NCc2ccc(S(=O)(=O)CC3CC3)cc2)cc1)(C(F)(F)F)C(F)(F)F` [Example 24, N-[[4-(cyclopropylmethylsulfonyl)phenyl]methyl]-4-[2,2,2-trifluoro-1-propoxy-1-(trifluoromethyl)ethyl]benzamide], the IC50 at RORγ is at most 100 nM.

Regarding `CCC(O)(c1ccc(C(=O)NCc2ccc(S(=O)(=O)CC3CC3)cc2)cc1)C(F)(F)F` (racemic) [(+)-1, (+)-N-[[4-(cyclopropylmethylsulfonyl)phenyl]methyl]-4-[1-hydroxy-1-(trifluoromethyl)propyl]benzamide], the IC50 on RORγ was at most 100 nM.

For the compound `COC(c1ccc(C(=O)NCc2ccc(S(=O)(=O)NC3CC3)cc2)cc1)(C(F)(F)F)C(F)(F)F` [Example 30, N-[[4-(cyclopropylsulfamoyl)phenyl]methyl]-4-[2,2,2-trifluoro-1-methoxy-1-(trifluoromethyl)ethyl]benzamide], the IC50 on RORγ was at most 1000 nM. Same read-out and setting: under `CCCCC(O)(c1ccc(C(=O)NCc2ccc(S(=O)(=O)NC3CC3)cc2)cc1)C(F)(F)F` (stereo not drawn) [Example 20, N-[[4-(cyclopropylsulfamoyl)phenyl]methyl]-4-[1-hydroxy-1-(trifluoromethyl)pentyl]benzamide] stands at most 1000 nM.

As to `COC(c1ccc(C(=O)NCc2ccc(S(=O)(=O)CC3CC3)cc2C)cc1)(C(F)(F)F)C(F)(F)F` [Example 28, N-[[4-(cyclopropylmethylsulfonyl)-2-methyl-phenyl]methyl]-4-[2,2,2-trifluoro-1-methoxy-1-(trifluoromethyl)ethyl]benzamide], the IC50 at RORγ is at most 100 nM. Still for that read-out and setting: in the case of `CC(O)(c1ccc(C(=O)NCc2ccc(S(=O)(=O)CC3CC3)cc2)cc1)C(F)(F)F` (stereo not drawn) [Example 2, N-[[4-(cyclopropylmethylsulfonyl)phenyl]methyl]-4-(2,2,2-trifluoro-1-hydroxy-1-methyl-ethyl)benzamide] it was at most 1000 nM; in that of `O=C(NCc1ccc(S(=O)(=O)CC2CC2)cc1)c1ccc(C(O)(Cc2ccccc2)C(F)(F)F)cc1` (stereo not drawn) [Example 14, 4-(1-benzyl-2,2,2-trifluoro-1-hydroxy-ethyl)-N-[[4-(cyclopropylmethylsulfonyl)phenyl]methyl]benzamide], at most 100 nM; in that of `O=C(NCc1ccc(S(=O)(=O)CC2CC2)cc1)c1ccc(C(O)(c2ccccc2)C(F)(F)F)cc1` (stereo not drawn) [Example 13, N-[[4-(cyclopropylmethylsulfonyl)phenyl]methyl]-4-(2,2,2-trifluoro-1-hydroxy-1-phenyl-ethyl)benzamide], at most 1000 nM. The same measure, in the same setting: in the case of `COC(c1ccc(C(=O)NCc2ccc(S(=O)(=O)CC3CC3)cc2)cc1)(C(F)(F)F)C(F)(F)F` [Example 22, N-[[4-(cyclopropylmethylsulfonyl)phenyl]methyl]-4-[2,2,2-trifluoro-1-methoxy-1-(trifluoromethyl)ethyl]benzamide] it was at most 100 nM. Still for that read-out and setting: in the case of `O=C(NCc1ccc(S(=O)(=O)CC2CC2)cc1)c1ccc(C(O)(C2CCCC2)C(F)(F)F)cc1` (stereo not drawn) [Example 12, 4-(1-cyclopentyl-2,2,2-trifluoro-1-hydroxy-ethyl)-N-[[4-(cyclopropylmethylsulfonyl)phenyl]methyl]benzamide] it was at most 100 nM. With `O=C(NCc1ccc(S(=O)(=O)CC2CC2)cc1)c1ccc(C(O)(C(F)(F)F)C(F)(F)F)cc1` [Example 4, N-[[4-(cyclopropylmethylsulfonyl)phenyl]methyl]-4-[2,2,2-trifluoro-1-hydroxy-1-(trifluoromethyl)ethyl]benzamide], on RORγ, the IC50 was at most 100 nM. Same read-out and setting: under `CC(C)OC(c1ccc(C(=O)NCc2ccc(S(=O)(=O)CC3CC3)cc2)cc1)(C(F)(F)F)C(F)(F)F` [Example 26, N-[[4-(cyclopropylmethylsulfonyl)phenyl]methyl]-4-[2,2,2-trifluoro-1-isopropoxy-1-(trifluoromethyl)ethyl]benzamide] stands at most 100 nM; under `CC(C)(C)CC(O)(c1ccc(C(=O)NCc2ccc(S(=O)(=O)CC3CC3)cc2)cc1)C(F)(F)F` (stereo not drawn) [Example 9, N-[[4-(cyclopropylmethylsulfonyl)phenyl]methyl]-4-[1-hydroxy-3,3-dimethyl-1-(trifluoromethyl)butyl]benzamide], at most 100 nM; under `CCCC(O)(c1ccc(C(=O)NCc2ccc(S(=O)(=O)CC3CC3)cc2)cc1)C(F)(F)F` (stereo not drawn) [Example 6, N-[[4-(cyclopropylmethylsulfonyl)phenyl]methyl]-4-[1-hydroxy-1-(trifluoromethyl)butyl]benzamide], at most 100 nM. `CCCOC(c1ccc(C(=O)NCc2ccc(S(=O)(=O)NC3CC3)cc2)cc1)(C(F)(F)F)C(F)(F)F` [Example 32, N-[[4-(cyclopropylsulfamoyl)phenyl]methyl]-4-[2,2,2-trifluoro-1-propoxy-1-(trifluoromethyl)ethyl]benzamide]: the IC50 on RORγ is at most 1000 nM.

As for `CCC(O)(c1ccc(C(=O)NCc2ccc(S(=O)(=O)CC)cc2)cc1)C(F)(F)F` (stereo not drawn) [Example 17, N-[(4-ethylsulfonylphenyl)methyl]-4-[1-hydroxy-1-(trifluoromethyl)propyl]benzamide], on RORγ, the IC50 is below 10000 nM.
